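Growth conditions: 96-well plates. Treatment: test compound, 48 hours, 5 concentrations. Analysis: linear interpolation between bracketing concentrations; unreached endpoints set to highest concentration. The concentration for full growth arrest is given as TGI.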
Legend:
Experiment in all cases: NCI-60 cell line screen, 48 h
A498 renal = test system: A498 renal
ACHN renal = test system: ACHN renal
BT-549 breast = test system: BT-549 breast
CAKI-1 renal = test system: CAKI-1 renal
CCRF-CEM leukemia = test system: CCRF-CEM leukemia
COLO 205 colon = test system: COLO 205 colon
DU-145 prostate = test system: DU-145 prostate
HCC-2998 colon = test system: HCC-2998 colon
HCT-15 colon = test system: HCT-15 colon
HL-60(TB) leukemia = test system: HL-60(TB) leukemia
HOP-62 NSCLC = test system: HOP-62 NSCLC
HOP-92 NSCLC = test system: HOP-92 NSCLC
HS 578T breast = test system: HS 578T breast
IGROV1 ovarian = test system: IGROV1 ovarian
K-562 leukemia = test system: K-562 leukemia
KM12 colon = test system: KM12 colon
LOX IMVI melanoma = test system: LOX IMVI melanoma
MALME-3M melanoma = test system: MALME-3M melanoma
MCF7 breast = test system: MCF7 breast
MDA-MB-231 breast = test system: MDA-MB-231 breast
MDA-MB-435 = test system: MDA-MB-435
MOLT-4 leukemia = test system: MOLT-4 leukemia
NCI-H23 lung = test system: NCI-H23 lung
NCI-H460 lung = test system: NCI-H460 lung
NCI-H522 lung = test system: NCI-H522 lung
NCI/ADR-RES ovarian = test system: NCI/ADR-RES ovarian
OVCAR-3 ovarian = test system: OVCAR-3 ovarian
OVCAR-4 ovarian = test system: OVCAR-4 ovarian
OVCAR-8 ovarian = test system: OVCAR-8 ovarian
PC-3 prostate = test system: PC-3 prostate
RPMI-8226 leukemia = test system: RPMI-8226 leukemia
RXF 393 renal = test system: RXF 393 renal
SF-268 CNS = test system: SF-268 CNS
SF-295 CNS = test system: SF-295 CNS
SF-539 CNS = test system: SF-539 CNS
SK-MEL-2 melanoma = test system: SK-MEL-2 melanoma
SK-MEL-28 melanoma = test system: SK-MEL-28 melanoma
SK-MEL-5 melanoma = test system: SK-MEL-5 melanoma
SK-OV-3 ovarian = test system: SK-OV-3 ovarian
SNB-75 CNS = test system: SNB-75 CNS
SW-620 colon = test system: SW-620 colon
T-47D breast = test system: T-47D breast
TK-10 renal = test system: TK-10 renal
U251 CNS = test system: U251 CNS
UACC-257 melanoma = test system: UACC-257 melanoma
UACC-62 melanoma = test system: UACC-62 melanoma
786-0 renal = test system: 786-0 renal
A549 NSCLC = test system: A549 NSCLC
EKVX NSCLC = test system: EKVX NSCLC
HCT-116 colon = test system: HCT-116 colon
HT29 colon = test system: HT29 colon
M14 melanoma = test system: M14 melanoma
NCI-H226 lung = test system: NCI-H226 lung
OVCAR-5 ovarian = test system: OVCAR-5 ovarian
SN12C renal = test system: SN12C renal
SNB-19 CNS = test system: SNB-19 CNS
SR leukemia = test system: SR leukemia
UO-31 renal = test system: UO-31 renal

`Cc1cc(O)c(C(C)C)cc1SC#N` gave a TGI (A498 renal) of 31.9 µM, a TGI (ACHN renal) of 30.1 µM and a TGI (BT-549 breast) of 36.4 µM. It also gave a TGI (CAKI-1 renal) of 28.2 µM, a TGI (CCRF-CEM leukemia) of 24.6 µM and a TGI (COLO 205 colon) of 40.5 µM. For the same compound, the TGI (DU-145 prostate) was 28.8 µM, the TGI (HCC-2998 colon) was 32.9 µM and the TGI (HCT-15 colon) was 39.3 µM. It also gave a TGI (HL-60(TB) leukemia) greater than 100 µM, a TGI (HOP-62 NSCLC) of 38.2 µM and a TGI (HOP-92 NSCLC) of 25.3 µM. The TGI (HS 578T breast) was 67.4 µM, the TGI (IGROV1 ovarian) was 37.6 µM and the TGI (K-562 leukemia) was 55 µM. For the same compound, the TGI (KM12 colon) was 31.4 µM, the TGI (LOX IMVI melanoma) was 32.6 µM and the TGI (MALME-3M melanoma) was 35.9 µM. For the same compound, the TGI (MCF7 breast) was 31.6 µM, the TGI (MDA-MB-231 breast) was 37.9 µM and the TGI (MDA-MB-435) was 27 µM. For the same compound, the TGI (MOLT-4 leukemia) was 25.3 µM, the TGI (NCI-H23 lung) was 33.3 µM and the TGI (NCI-H460 lung) was 33.4 µM. The TGI (NCI-H522 lung) was 24.9 µM, the TGI (NCI/ADR-RES ovarian) was 47.7 µM and the TGI (OVCAR-3 ovarian) was 28.8 µM. The TGI (OVCAR-4 ovarian) was 28.5 µM, the TGI (OVCAR-8 ovarian) was 88.9 µM and the TGI (PC-3 prostate) was 34.4 µM. It also gave a TGI (RPMI-8226 leukemia) of 33.7 µM, a TGI (RXF 393 renal) of 29.1 µM and a TGI (SF-268 CNS) of 49.3 µM. For the same compound, the TGI (SF-295 CNS) was 31.2 µM, the TGI (SF-539 CNS) was 37.1 µM and the TGI (SK-MEL-2 melanoma) was 35.7 µM. The TGI (SK-MEL-28 melanoma) was 33.8 µM, the TGI (SK-MEL-5 melanoma) was 42.7 µM and the TGI (SK-OV-3 ovarian) was 37.6 µM. The TGI (SNB-75 CNS) was 22.5 µM, the TGI (SW-620 colon) was 44.5 µM and the TGI (T-47D breast) was 65 µM. For the same compound, the TGI (TK-10 renal) was 31.8 µM, the TGI (U251 CNS) was 31.8 µM and the TGI (UACC-257 melanoma) was 38.1 µM. It also gave a TGI (UACC-62 melanoma) of 28.7 µM.
`c1ccc(CCN2CCc3[nH]c4ccccc4c3C2)cc1` was tested, and the TGI (786-0 renal) was 31.6 µM, the TGI (A498 renal) was 33.3 µM and the TGI (A549 NSCLC) was 62.3 µM. It also gave a TGI (ACHN renal) of 96.7 µM, a TGI (CCRF-CEM leukemia) greater than 100 µM and a TGI (COLO 205 colon) greater than 10 µM. The TGI (DU-145 prostate) was greater than 100 µM, the TGI (EKVX NSCLC) was greater than 100 µM and the TGI (HCC-2998 colon) was 30.5 µM. For the same compound, the TGI (HCT-116 colon) was 28.7 µM, the TGI (HCT-15 colon) was 46.2 µM and the TGI (HL-60(TB) leukemia) was 41.7 µM. The TGI (HOP-62 NSCLC) was 45.6 µM, the TGI (HOP-92 NSCLC) was 34.6 µM and the TGI (HT29 colon) was 28.5 µM. The TGI (IGROV1 ovarian) was 67.8 µM, the TGI (K-562 leukemia) was 45.5 µM and the TGI (KM12 colon) was 34.9 µM. It also gave a TGI (LOX IMVI melanoma) of 35.4 µM, a TGI (M14 melanoma) of 34 µM and a TGI (MALME-3M melanoma) of 32.8 µM. The TGI (MCF7 breast) was 40.9 µM, the TGI (MDA-MB-231 breast) was 87.7 µM and the TGI (MDA-MB-435) was 36 µM. For the same compound, the TGI (MOLT-4 leukemia) was 70.5 µM, the TGI (NCI-H226 lung) was 71.4 µM and the TGI (NCI-H23 lung) was greater than 100 µM. For the same compound, the TGI (NCI-H460 lung) was 30.9 µM, the TGI (NCI/ADR-RES ovarian) was 36.9 µM and the TGI (OVCAR-4 ovarian) was greater than 100 µM. For the same compound, the TGI (OVCAR-5 ovarian) was 67 µM, the TGI (OVCAR-8 ovarian) was 44.7 µM and the TGI (RPMI-8226 leukemia) was greater than 10 µM. For the same compound, the TGI (RXF 393 renal) was 34.3 µM, the TGI (SF-268 CNS) was greater than 100 µM and the TGI (SF-295 CNS) was 35.2 µM. The TGI (SF-539 CNS) was 40 µM, the TGI (SK-MEL-28 melanoma) was 41.8 µM and the TGI (SK-MEL-5 melanoma) was 33.9 µM. It also gave a TGI (SK-OV-3 ovarian) greater than 100 µM, a TGI (SN12C renal) of 62.2 µM and a TGI (SNB-19 CNS) of 41.8 µM. It also gave a TGI (SNB-75 CNS) of 68 µM, a TGI (SR leukemia) of 75.7 µM and a TGI (SW-620 colon) of 29.6 µM. The TGI (T-47D breast) was 51.5 µM, the TGI (TK-10 renal) was 51.7 µM and the TGI (U251 CNS) was 31.9 µM. It also gave a TGI (UACC-257 melanoma) of 30.4 µM, a TGI (UACC-62 melanoma) greater than 10 µM and a TGI (UO-31 renal) of 32 µM.

Reference: PubChem BioAssay (NCI)
